Target: T1, CLR/RAMP1 (calcitonin receptor-like receptor) (Homo sapiens, UniProt O60894+Q16602)
T1 construct: gene CALCRL; with RAMP1
Experiment: inhibition of CGRP-evoked Ca2+ response in primary human Schwann cells (preincubation, then washout)
Assay type: cell-based

T1 sequence (Q16602 23-461): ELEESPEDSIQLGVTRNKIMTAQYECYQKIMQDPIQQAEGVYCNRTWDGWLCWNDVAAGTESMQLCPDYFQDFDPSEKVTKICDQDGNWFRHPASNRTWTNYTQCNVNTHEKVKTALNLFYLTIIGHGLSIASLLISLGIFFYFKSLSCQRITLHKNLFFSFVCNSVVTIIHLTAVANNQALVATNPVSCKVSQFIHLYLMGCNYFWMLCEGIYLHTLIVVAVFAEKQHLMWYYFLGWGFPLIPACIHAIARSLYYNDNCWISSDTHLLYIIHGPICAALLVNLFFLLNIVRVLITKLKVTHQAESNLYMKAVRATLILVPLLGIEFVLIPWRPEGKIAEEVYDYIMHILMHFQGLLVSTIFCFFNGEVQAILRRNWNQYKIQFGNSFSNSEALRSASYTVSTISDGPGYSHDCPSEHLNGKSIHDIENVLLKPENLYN
T1 sequence (O60894 27-148): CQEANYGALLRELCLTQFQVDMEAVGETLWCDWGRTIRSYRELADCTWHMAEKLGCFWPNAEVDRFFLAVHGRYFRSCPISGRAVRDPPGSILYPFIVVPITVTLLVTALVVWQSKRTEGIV

- IC50: 2900 nM
SMILES: O=C(CN1C(=O)C2(CCCC2)NC[C@H]1c1cc(F)cc(F)c1)Nc1ccc2c(c1)C[C@@]1(C2)C(=O)Nc2ncccc21 [MK-3207]

Source: article PMC8813987, “Schwann cell endosome CGRP signals elicit periorbital mechanical allodynia in mice” (Nature Communications, 2022)
